From patent US7220784B2, “Substituted stilbenes and their reactions” (priority 2000, dated 2007)
Like-named read-outs stand apart in the source and are kept apart here.

Legend:
tubulin [1] = tested on: T1, tubulin; assay: Inhibition of tubulin assembly; assay type: biochemical; conditions: concentration required to reduce assembly of tubulin by 50%
T1 construct: other: concentration required to reduce assembly of tubulin by 50%
Method: (§1) The following assays (1–5) were carried out as described in our paper (Woods, et al, British Journal of Cancer, 71, 705–711 (1995)). In addition to the cell lines described in this paper, other established human cell lines (K562, HUVEC, H460, BE, H529, and HT29) were used in the cytotoxicity/growth inhibition assay. • (1) Inhibition of tubulin assembly. The figure quoted is the concentration required to reduce assembly of tubulin by 50%. Tubulin assembly is monitored by light scatter/absorption at 350 nm.

[2] = tested on: K562 human myelogeneous leukaemia cell line; assay: Cytotoxicity/growth inhibition assay (MTT), K562; assay type: cell-based; conditions: MTT, read-out: K562 IC50
Text: as §1, with “In” for “The following assays (1–5) were carried out as described in our paper (Woods, et al, British Journal of Cancer, 71, 705–711 (1995)). In”
(§2) (2) Competition for the colchicine binding site on tubulin. The figure quoted represents the % of ^3H-colchicine bound following co-incubation of test compound and ^3H-cochicine with isolated tubulin. Where ester pro-drugs were used the experiments were carried out in the presence and absence of porcine liver esterase. • (3) Cytotoxicity/growth inhibition assay. This was carried out by the MTT assay. • (4) Permeability (shape-change) assay in endothelial cells. […] This involved the diffusion of a fluorescently labelled dextran through a barrier of endothelial cells (HUVEC) grown to confluence on a porous membrane. The effect of agents to alter the shape of these cells results in an increase in the permeability of the cells to the dye. The figure represents the increase in permeability over control cultures when drug is added (30 minutes, 1 mM.). • (5) Experiments to study the anti-vascular effects of these agents were carried out as described previously by our group. […] The anti-vascular effects of the agents were monitored by either positron emission tomography (PET) or by histologogical examination following treatment of mice bearing T50:80 murine breast tumours, or H460 human lung tumours. • (6) Anti-tumour efficacy of agents was determined in xenografts of H460 human lung cancer. Animals (n=5) were trated either with 5 daily injections and tumour size measured with time following treatment. • (7) The pharmacokinetic profile of agents was determined in mice following injection with drug. Blood was taken at various times following treatment and analysed by HPLC with UV detection. […] (AND(P)H:quinone oxidoreductace, EC 1.6.99.2). DT-diaphorase is an enzyme over-expressed in a number of human tumours. […] This two-electron reducing enzyme can be used to selectively activate prodrugs within cancers which over-express the enzyme.

tubulin [3] = assay: CD IC50 (Tables 12-26, abbreviation not defined); assay type: binding
tubulin [4] = assay: MA IC50 (Tables 12-26, abbreviation not defined); assay type: biochemical
HUVEC = assay: Growth inhibition studies using HUVEC; assay type: cell-based, human; conditions: Homo sapiens, HUVEC
Method: as §1
(§3) (2) Competition for the colchicine binding site on tubulin. The figure quoted represents the % of ^3H-colchicine bound following co-incubation of test compound and ^3H-cochicine with isolated tubulin. Where ester pro-drugs were used the experiments were carried out in the presence and absence of porcine liver esterase. • (3) Cytotoxicity/growth inhibition assay. This was carried out by the MTT assay. • (4) Permeability (shape-change) assay in endothelial cells. This was carried out using a method based on that of Watts et al. (Anticancer Res., 17, 71–75, (1997)). This involved the diffusion of a fluorescently labelled dextran through a barrier of endothelial cells (HUVEC) grown to confluence on a porous membrane. The effect of agents to alter the shape of these cells results in an increase in the permeability of the cells to the dye. The figure represents the increase in permeability over control cultures when drug is added (30 minutes, 1 mM.). • (5) Experiments to study the anti-vascular effects of these agents were carried out as described previously by our group. (Zhao et al, European Journal of Nuclear Medicine, 26, 231–238 (1999)). The anti-vascular effects of the agents were monitored by either positron emission tomography (PET) or by histologogical examination following treatment of mice bearing T50:80 murine breast tumours, or H460 human lung tumours. • (6) Anti-tumour efficacy of agents was determined in xenografts of H460 human lung cancer. Animals (n=5) were trated either with 5 daily injections and tumour size measured with time following treatment. • (7) The pharmacokinetic profile of agents was determined in mice following injection with drug. Blood was taken at various times following treatment and analysed by HPLC with UV detection. The HPLC conditions were isocratic using a 5 micron C18 BDS column (150×4.6) ad eluting with 75% MeOH in water with a detection wavelength of 290 nm. […] (AND(P)H:quinone oxidoreductace, EC 1.6.99.2). DT-diaphorase is an enzyme over-expressed in a number of human tumours. […] This two-electron reducing enzyme can be used to selectively activate prodrugs within cancers which over-express the enzyme.

K562 [5] = assay: K562 cell cycle analysis; assay type: cell-based, human; conditions: K562
[6] = tested on: P388 murine leukaemia cell line; assay: Cytotoxicity/growth inhibition assay (MTT), P388; assay type: cell-based; conditions: MTT
Method: as §2

A2780 = assay: Cytotoxicity/growth inhibition assay (MTT), A2780; assay type: cell-based; conditions: read-out: A2780 IC50
Method: as §1, §3

K562 cells = assay: In situ ultra violet irradiation of dosed K562 cells, IC50; assay type: cell-based, human; conditions: read-out: IC50 K562 (nm)
Method: Previously, the isomerisation study had been performed ex situ, i.e. in a photochemical reactor. However, it was necessary to illustrate the potential of the process as a real therapy by repeating the isomerization in the presence of the caner cells i.e. in situ. […] Following irradiation, the cells were incubated in the normal way and the IC50 values were determined.
These consisted of i) exposing K562 cells only (i.e. cells which were not dosed with any potential drug candidate) to ultra violet light, ii) preventing K562 cells dosed with drug candidate from being exposed to ultra violet light, and iii) preventing K562 cells only (i.e. cells which were not dosed with any potential drug candidate) from being exposed to ultra violet light. […]

[7] = Photocleavage and isomerisation of coupled trans-CA-4 ex situ, composition (HPLC); assay type: physicochemical; conditions: benzene
Text: The following compound retention times were observed:

K562 [8] = assay: IC50 of aliquots after ex situ irradiation in a photochemical reactor; conditions: for IC50: read-out: IC50 K562, ex situ irradiation in benzene, 400W Hg lamp
[9] = of cells with DNA content = 2 n or >2 n
[10] = irradiation 20. mins [sic] (Table 8)
[11] = irradiation 10.0 mins (Table 8)
[12] = irradiation 12.5 mins (Table 8)

For `CCOc1cc(/C=C\c2ccc(OC)c(O)c2)cc(OCC)c1OCC` [Compound 31a, Z-1-(3′,4′,5′-triethoxyphenyl)-2-(3″-hydroxy-4″-methoxyphenyl)ethene], the IC50 (tubulin [1]) was 7.5 µM and the IC50 ([2]; Homo sapiens, K562) was 18 nM.
For `COc1ccc(/C=C\c2cc(OC)c(OC)c(OC)c2)cc1` [Compound 32], the IC50 (tubulin [3]) was 5500 nM, the IC50 (tubulin [4]) was 200 nM and the IC50 (HUVEC) was 6 nM. For the same compound, the IC50 ([2]; Homo sapiens, K562) was 4 nM.
In the case of `CCOc1cc(/C=C\c2ccc(OC)c(F)c2)cc(OCC)c1OCC` [Compound 32a, Z-1-(3′,4′,5′-triethoxyphenyl)-2-(3″-fluoro-4″-methoxyphenyl)ethene], the IC50 (tubulin [1]) is reported as 18 µM and the IC50 ([2]; Homo sapiens, K562) is reported as 44 nM.
`CC/C(=C/c1cc(OC)c(OC)c(OC)c1)c1ccc(OC)c(O)c1` [Compound 45] showed an IC50 (tubulin [1]) of 1.8 µM and an IC50 ([2]; Homo sapiens, K562) of 120 nM.
In the case of `COc1ccc(/C=C\c2cc(OC)c(OC)c(OC)c2)cc1F` [Compound 90], the “% of cells with DNA content <2 n” value (K562 [5]) is reported as 16%, the “% of cells in G0–G1” value (K562 [5]; [9]) is reported as 5% and the “% of cells in G2-M” value (K562 [5]; [9]) is reported as 79%. The “% of cells in S phase” value (K562 [5]; [9]) was 16%, the IC50 (tubulin [3]) was 2800 nM and the IC50 (tubulin [4]) was 85 nM. It also gave an IC50 (HUVEC) of 4 nM and an IC50 ([2]; Homo sapiens, K562) of 10 nM.
Compound `COc1ccc(/C=C\c2cc(OC)c(OC)c(OC)c2)cc1Br` [Compound 93] has an IC50 (tubulin [3]) of 10000 nM, an IC50 (tubulin [4]) of 400 nM and an IC50 (HUVEC) of 67 nM. The IC50 ([2]; Homo sapiens, K562) was 1 nM.
Compound `COc1ccc(/C=C\c2cc(OC)c(OC)c(OC)c2)cc1OC` [Compound 99-03H] has an IC50 (tubulin [1]) of 60 µM, an IC50 [6] of 190 nM and an IC50 (A2780) of 120 nM. For the same compound, the IC50 [2] was 60 nM.
For `COC(=O)CCCOc1cc([N+](=O)[O-])c(COc2cc(/C=C/c3cc(OC)c(OC)c(OC)c3)ccc2OC)cc1OC` [Compound E-8, Methyl 4-[2′-methoxy-4′-({2″-methoxy-5″-[(E)-2′″-3′″,4′″,5′″-trimethoxyphenylethenyl]phenoxy}-methyl)-5′-nitrophenoxy]butanoate], the IC50 (K562 cells; in situ UV 0 mins (Table 9)) was over 100000 nM, the IC50 (K562 cells; in situ UV 0.5 mins (Table 9)) was 1540 nM and the IC50 (K562 cells; in situ UV 1 mins (Table 9)) was 450 nM. For the same compound, the IC50 (K562 cells; in situ UV 1.5 mins (Table 9)) was 250 nM, the IC50 (K562 cells; in situ UV 2 mins (Table 9)) was 130 nM and the IC50 (K562 cells; in situ UV 3 mins (Table 9)) was 40 nM. For the same compound, the IC50 (K562 cells; in situ UV 4 mins (Table 9)) was 11 nM, the IC50 (K562 cells; in situ UV 5 mins (Table 9)) was 9 nM and the IC50 (K562 cells; in situ UV 7.5 mins (Table 9)) was 5 nM. The IC50 (K562 cells; in situ UV 10 mins (Table 9)) was 2 nM, the IC50 (K562 cells; in situ UV 12.5 mins (Table 9)) was 3 nM and the IC50 (K562 cells; in situ UV 15 mins (Table 9)) was 3 nM. For the same compound, the IC50 (K562 cells; in situ UV 17.5 mins (Table 9)) was 2 nM, the IC50 (K562 cells; in situ UV 20 mins (Table 9)) was 2 nM and the “% coupled trans-CA-4 (E-8)” value ([7]; irradiation 0 mins (Table 8)) was 100%. The “% cis-CA-4” value [7, 10] was 9%, the “% coupled trans-CA-4 (E-8)” value [7, 10] was 72% and the “% trans-CA-4” value [7, 10] was 19%. The “% coupled trans-CA-4 (E-8)” value ([7]; irradiation 0.5 mins (Table 8)) was 93%, the “% trans-CA-4” value ([7]; irradiation 0.5 mins (Table 8)) was 7% and the “% cis-CA-4” value ([7]; irradiation 1.0 mins (Table 8)) was 4%. The “% coupled trans-CA-4 (E-8)” value ([7]; irradiation 1.0 mins (Table 8)) was 88%, the “% trans-CA-4” value ([7]; irradiation 1.0 mins (Table 8)) was 8% and the “% cis-CA-4” value ([7]; irradiation 1.5 mins (Table 8)) was 8%. For the same compound, the “% coupled trans-CA-4 (E-8)” value ([7]; irradiation 1.5 mins (Table 8)) was 80%, the “% trans-CA-4” value ([7]; irradiation 1.5 mins (Table 8)) was 12% and the “% cis-CA-4” value ([7]; irradiation 3.0 mins (Table 8)) was 11%. For the same compound, the “% coupled trans-CA-4 (E-8)” value ([7]; irradiation 3.0 mins (Table 8)) was 62%, the “% trans-CA-4” value ([7]; irradiation 3.0 mins (Table 8)) was 27% and the “% cis-CA-4” value ([7]; irradiation 4.0 mins (Table 8)) was 8%. The “% coupled trans-CA-4 (E-8)” value ([7]; irradiation 4.0 mins (Table 8)) was 61%, the “% trans-CA-4” value ([7]; irradiation 4.0 mins (Table 8)) was 31% and the “% cis-CA-4” value ([7]; irradiation 5.0 mins (Table 8)) was 10%. For the same compound, the “% coupled trans-CA-4 (E-8)” value ([7]; irradiation 5.0 mins (Table 8)) was 53%, the “% trans-CA-4” value ([7]; irradiation 5.0 mins (Table 8)) was 37% and the “% cis-CA-4” value ([7]; irradiation 7.5 mins (Table 8)) was 13%. The “% coupled trans-CA-4 (E-8)” value ([7]; irradiation 7.5 mins (Table 8)) was 42%, the “% trans-CA-4” value ([7]; irradiation 7.5 mins (Table 8)) was 45% and the “% cis-CA-4” value [7, 11] was 19%. For the same compound, the “% coupled trans-CA-4 (E-8)” value [7, 11] was 34%, the “% trans-CA-4” value [7, 11] was 47% and the “% cis-CA-4” value [7, 12] was 45%. For the same compound, the “% coupled trans-CA-4 (E-8)” value [7, 12] was 20%, the “% trans-CA-4” value [7, 12] was 35% and the “times less cytotoxic than trans-CA-4” value (K562 [8]; K562) was 5. The IC50 (K562 [8]; 0 mins (Table 8)) was over 150000 nM, the IC50 (K562 [8]; 20. mins as printed (Table 8)) was 59 nM and the IC50 (K562 [8]; 0.5 mins (Table 8)) was 14600 nM. For the same compound, the IC50 (K562 [8]; 1.0 mins (Table 8)) was 450 nM, the IC50 (K562 [8]; 1.5 mins (Table 8)) was 90 nM and the IC50 (K562 [8]; 3.0 mins (Table 8)) was 14 nM. The IC50 (K562 [8]; 4.0 mins (Table 8)) was 12 nM, the IC50 (K562 [8]; 5.0 mins (Table 8)) was 8 nM and the IC50 (K562 [8]; 7.5 mins (Table 8)) was 4 nM. It also gave an IC50 (K562 [8]; 10.0 mins (Table 8)) of 6 nM, an IC50 (K562 [8]; 12.5 mins (Table 8)) of 2 nM and an IC50 (K562 [8]; 15.0 mins (Table 8)) of 2 nM. It also gave an IC50 (K562 [8]; 17.5 mins (Table 8)) of 4 nM and an IC50 (K562 [8]; 20.0 mins (Table 8)) of 3 nM.
